Values quoted from earlier work as cited in patent US7956090B2, “Composition and method for increasing the anabolic state of muscle cells” (priority 2007, dated 2011).

Experiments:
[1] = about 1.5 g daily after intense exercise for 42 days
[2] = condensation and cyclization upon dissolution in water

Compound	delayed onset muscle soreness [1]	total lean soft tissue mass [1]	stability in aqueous solution [2]
CC(C)CC(O)C(=O)O (stereo not drawn) [HICA, 2-hydroxy-4-methylvaleric acid]	little to no delayed onset muscle soreness	statistically significant increase	
CC(=O)C(=O)O [pyruvate, pyruvic acid]			poor stability
